US20250230226A1, “PLXDC1/PLXDC2 ACTIVATORS AND THEIR USE IN THE TREATMENT OF BLOOD VESSEL DISORDERS” (THE REGENTS OF THE UNIVERSITY OF CALIFORNIA, priority 2019, published 2025)

System: LL/2 lung cancer tumor endothelial cells
Test: Lung LL2 ex vivo model of tumor angiogenesis
Type: cell-based, mouse
Settings: for 48 hrs (morphology observations): LL/2 tumor endothelial cells; for Cell death: drug treatment for two days, ratio of red area to total endothelial cell area; for cytotoxicity at 40 µM / cytotoxicity at 20 µM: Mus musculus, Endothelial cell, 48 h, read-out: Cell death
How it was run: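 Live/dead imaging with FDA and PI, taken e.g. 48 h post-drug under fixed channel settings, measures treatment effects on endothelial cells sprouting from Lewis lung tumor explants. Explants were seeded in Matrigel drops and grown ~4 days in endothelial growth medium, 37 °C, 5% CO2, before dosing.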

SMILES | 48 hrs (morphology observations) (40 μm) | Cell death (40 μm) [%] | 48 hrs (morphology observations) (20 μm) | Cell death (20 μm) [%] | further results
COc1ccc(S(=O)(=O)c2cnc3cc(OC)c(OC)cc3c2N2CCCN(CCO)CC2)cc1 [Compound 323] | 0 | 30 |  |  | 
CCCCOc1ccc(S(=O)(=O)c2cnc3ccc(OC(F)(F)F)cc3c2N2CC[S+]([O-])CC2)cc1 [Compound 197] | 0 | 20 |  |  | 
CCOC(=O)c1ccc2ncc(S(=O)(=O)c3ccc(CC)cc3)c(-n3ccnc3)c2c1 [Compound 134] |  |  | **** (100% of endothelial cells vesicularize in cell shape and look flattened in morphology (indicating disintegration of the cell body)) |  | 
CNC(=O)c1ccc(C2CCN(c3c(S(=O)(=O)c4ccc(OC)cc4)cnc4cc(OC)c(OC)cc34)CC2)cc1 [Compound 310] | 0 | 10 |  |  | 
CCCCOc1ccc(S(=O)(=O)c2cnc3ccc(C(=O)OCC)cc3c2N2CCS(=O)(=O)CC2)cc1 [Compound 196] | 0 | 30 |  |  | 
CCCCOc1ccc(S(=O)(=O)c2cnc3ccc(C(=O)OCC)cc3c2N2CCC(N3CCN(C)CC3)CC2)cc1 [Compound 172] | **** (100% of endothelial cells vesicularize in cell shape and look flattened in morphology (indicating disintegration of the cell body)) | 100 |  |  | 
COc1ccc(S(=O)(=O)c2cnc3ccc(SC)cc3c2NN2CCN(C)CC2)cc1 [Compound 226] | * (50% or less of cells vesicularize in cell shape) | 10 |  |  | 
CCCCCCCOc1ccc(S(=O)(=O)c2cnc3ccc(SC)cc3c2N2CCN(C3CCN(Cc4ccccc4)C3)CC2)cc1 (stereo not drawn) [Compound 274] |  |  | 0 | 10 | 
CCCCOc1ccc(S(=O)(=O)c2cnc3ccc(SC)cc3c2N2CCC(N3CCOCC3)CC2)cc1 [Compound 229] | 0 | 30 |  |  | 
CCCCOc1ccc(S(=O)(=O)c2cnc3ccc(SC)cc3c2N2CCC(N3CCC(O)(c4ccccc4)CC3)CC2)cc1 [Compound 232] | 0 | 10 |  |  | 
CCc1ccc(S(=O)(=O)c2cnc3ccc(OC(F)(F)F)cc3c2-n2cccc2)cc1 [Compound 108] |  |  | 0 | 0 | 
CCc1ccc(S(=O)(=O)c2cnc3ccc(OC(F)(F)F)cc3c2Nc2ccncc2)cc1 [Compound 107] |  |  | 0 | 0 | 
CCCCCCCOc1ccc(S(=O)(=O)c2cnc3ccc([S+](C)[O-])cc3c2N2CCN(C3CCN(Cc4ccccc4)C3)CC2)cc1 (stereo not drawn) [Compound 278] |  |  |  |  | 48 hrs (morphology observations) (10 μm): * (50% or less of cells vesicularize in cell shape); Cell death (10 μm): 50%
COc1ccc(S(=O)(=O)c2cnc3cc(OC)c(OC)cc3c2N2C[C@@H]3C[C@H]2CN3C)cc1 [Compound 306] | 0 |  |  |  | cytotoxicity at 40 µM: 40%
COc1ccc(S(=O)(=O)c2cnc3ccc([N+](=O)[O-])cc3c2N2CCC(N3CCCCC3)CC2)cc1 [Compound 114] |  |  | 0 | 5 | 
CCc1ccc(S(=O)(=O)c2cnc3ccc(OC(F)(F)F)cc3c2NCCCCCO)cc1 [Compound 104] |  |  | 0 | 20 | 
CCCCOc1ccc(S(=O)(=O)c2cnc3ccc(SC)cc3c2N2CCC(N3CCN(c4ccc(F)cc4)CC3)CC2)cc1 [Compound 233] | 0 | 5 |  |  | 
COc1ccc(S(=O)(=O)c2cnc3cc(OC)c(OC)cc3c2N2CCC(O)(c3ccccc3)CC2)cc1 [Compound 308] | 0 | 20 |  |  | 
CCCCOc1ccc(S(=O)(=O)c2cnc3ccc(SC)cc3c2N2CCC(N3CCC(N4CCCCC4)CC3)CC2)cc1 [Compound 231] | *** (more than 50% but less than 100% of endothelial cells vesicularize in cell shape) | 100 |  |  | 
CCCCOc1ccc(S(=O)(=O)c2cnc3ccc(SC)cc3c2N2CCC3C(COCCN3CC(C)C)C2)cc1 (stereo not drawn) [Compound 352] | *** (more than 50% but less than 100% of endothelial cells vesicularize in cell shape) |  |  |  | cytotoxicity at 40 µM: 100%
CCCCCCCCCCCCOc1ccc(S(=O)(=O)c2cnc3ccc([S+](C)[O-])cc3c2N2CCC(N3CCC(N4CCC(O)CC4)CC3)CC2)cc1F (stereo not drawn) [Compound 372] |  |  |  | 20 | 
CCCCCCCOc1ccc(S(=O)(=O)c2cnc3ccc(SC)cc3c2N2CCN(CCN3CCCC3)CC2)cc1 [Compound 272] |  |  | * (50% or less of cells vesicularize in cell shape) | 20 | 

SMILES | 48 hrs (morphology observations) (40 μm) | Cell death (40 μm) [%] | 48 hrs (morphology observations) (20 μm) | Cell death (20 μm) [%] | further results
CCCCOc1ccc(S(=O)(=O)c2cnc3ccc(SC)cc3c2N2CCC(N3CCCN(C)CC3)CC2)cc1 [Compound 234] | *** (more than 50% but less than 100% of endothelial cells vesicularize in cell shape) | 100 |  |  | 
CCOC(=O)c1ccc(N2CCN(c3c(S(=O)(=O)c4ccc(OC)cc4)cnc4cc(OC)c(OC)cc34)CC2)cc1 [Compound 317] | 0 | 30 |  |  | 
CCCCOc1ccc(S(=O)(=O)c2cnc3ccc(SC)cc3c2N2CCC(N3CCCC3CO)CC2)cc1 (stereo not drawn) [Compound 350] | 0 |  |  |  | cytotoxicity at 40 µM: 20%
CCCCCCCCCCCCCCOc1ccc(S(=O)(=O)c2cnc3ccc([S+](C)[O-])cc3c2N2CCC(N3CCN(CCO)CC3)CC2)cc1F (stereo not drawn) [Compound 365] |  |  | *** (more than 50% but less than 100% of endothelial cells vesicularize in cell shape) | 20 | 
CCCCCCCCCCCCCCCCOc1ccc(S(=O)(=O)c2cnc3ccc([S+](C)[O-])cc3c2N2CCC(N3CCC(N4CCCC(O)C4)CC3)CC2)cc1 (stereo not drawn) [Compound 378] |  |  | *** (more than 50% but less than 100% of endothelial cells vesicularize in cell shape) | 30 | 
CC(C)CCCC(C)CCOc1ccc(S(=O)(=O)c2cnc3ccc([S+](C)[O-])cc3c2N2CCC(N3CCN(CCO)CC3)CC2)cc1 (stereo not drawn) [Compound 284] |  |  |  |  | 48 hrs (morphology observations) (10 μm): 0; Cell death (10 μm): 10%
CCCCCCCCCCCCCCOc1ccc(S(=O)(=O)c2cnc3ccc([S+](C)[O-])cc3c2N2CCC(N3CCC(N4CCN(CCO)CC4)CC3)CC2)cc1 (stereo not drawn) [Compound 345] |  |  | *** (more than 50% but less than 100% of endothelial cells vesicularize in cell shape) | 50 | 
CCOC(=O)c1ccc2ncc(S(=O)(=O)c3ccc(OC)cc3)c(N3CCCN(CCN4CCCCC4)CC3)c2c1 [Compound 179] |  |  |  |  | 48 hrs (morphology observations) (10 μm): *** (more than 50% but less than 100% of endothelial cells vesicularize in cell shape); Cell death (10 μm): 60%
CCOC(=O)c1ccc2ncc(S(=O)(=O)c3ccc(OC)cc3)c(N3CCC(N4CCCC(O)C4)CC3)c2c1 (stereo not drawn) [Compound 174] | 0 | 30 |  |  | 
CCCCCCCOc1ccc(S(=O)(=O)c2cnc3ccc([S+](C)[O-])cc3c2N2CCN(CCN3CCCC3)CC2)cc1 (stereo not drawn) [Compound 276] |  |  | *** (more than 50% but less than 100% of endothelial cells vesicularize in cell shape) | 100 | 
CCCCCCCOc1ccc(S(=O)(=O)c2cnc3ccc(SC)cc3c2N2CCC(N3CCCN(C)CC3)CC2)cc1 [Compound 249] |  |  | *** (more than 50% but less than 100% of endothelial cells vesicularize in cell shape) | 60 | 
CCCCCCCCCCOc1ccc(S(=O)(=O)c2cnc3ccc([S+](C)[O-])cc3c2N2CCC(N3CCC(N4CCCN(C)CC4)CC3)CC2)cc1 (stereo not drawn) [Compound 287] |  |  |  |  | Cell death, read at 24 hrs (20 μm, (24 hrs)): 40%; Endothelial cell morphology score at 24 hrs (20 μm, (24 hrs)): * (50% or less of cells vesicularize in cell shape)
CCc1ccc(S(=O)(=O)c2cnc3ccc(OC(F)(F)F)cc3c2NCCCCO)cc1 [Compound 111] |  |  | 0 | 30 | 
CCCCOc1ccc(S(=O)(=O)c2cnc3ccc(C(=O)OCC)cc3c2N2CCCN(CCN3CCCCC3)CC2)cc1 [Compound 181] | **** (100% of endothelial cells vesicularize in cell shape and look flattened in morphology (indicating disintegration of the cell body)) | 100 |  |  | 
COc1ccc(S(=O)(=O)c2cnc3cc(OC)c(OC)cc3c2N2CCC(N3CCCC3CO)CC2)cc1 (stereo not drawn) [Compound 322] | 0 | 30 |  |  | 
CCCCCCCOc1ccc(S(=O)(=O)c2cnc3ccc(SC)cc3c2N2CCC(N3CCN(C)CC3)CC2)cc1 [Compound 246] |  |  | *** (more than 50% but less than 100% of endothelial cells vesicularize in cell shape) | 95 | 
CCCCCCCOc1ccc(S(=O)(=O)c2cnc3ccc(SC)cc3c2N2CCC(N3CCN(CCO)CC3)CC2)cc1 [Compound 250] |  |  | *** (more than 50% but less than 100% of endothelial cells vesicularize in cell shape) | 90 | 
CCCCCCCCCCCCCCOc1ccc(S(=O)(=O)c2cnc3ccc([S+](C)[O-])cc3c2N2CCC(N3CCC(N4CCCC(O)C4)CC3)CC2)cc1F (stereo not drawn) [Compound 364] |  |  | *** (more than 50% but less than 100% of endothelial cells vesicularize in cell shape) |  | cytotoxicity at 20 µM: 30%
CCCCCCCCCCOc1ccc(S(=O)(=O)c2cnc3ccc([S+](C)[O-])cc3c2N2CCC(N3CCN(CCO)CC3)CC2)cc1 (stereo not drawn) [Compound 268] |  |  | *** (more than 50% but less than 100% of endothelial cells vesicularize in cell shape) | 50 | 
CCCCCCCCCCCCOc1ccc(S(=O)(=O)c2cnc3ccc([S+](C)[O-])cc3c2N2CCC(N3CCC(N4CCCC(O)C4)CC3)CC2)cc1F (stereo not drawn) [Compound 367] |  |  | 0 |  | cytotoxicity at 20 µM: 5%
CCOC(=O)c1ccc2ncc(S(=O)(=O)c3ccc(OC)cc3)c(-n3ccnn3)c2c1 [Compound 184] |  |  |  |  | 48 hrs (morphology observations) (10 μm): 0; Cell death (10 μm): 5%
